Assay results taken from patent US20220010352A1, “ANIMAL MODELS AND SCREENING METHODS FOR INTRAOCULAR DISEASE OR DISORDER” (ZHUHAI QlWEl BIO-TECHNOLOGY LTD., priority 2018, published 2022).
“Also recorded” adds a separate entry of the source.

Legend:
Bacillus megaterium [1] = assay: antibiotic sensitivity screening test in petri dishes (minimum inhibitory concentration method); type: cell-based; conditions: MIC method, 10^-1 to 10^-5 mg/mL in medium, FIG. 1
Method: The bacterial culture medium (HuanKai Microbial, Guangzhou, China) containing peptone 5 g, beef extract 3 g, NaCl 5 g, agar 15 g, and MnSO4 5 mg in 1 L ddH2O (pH=7.2) was prepared in conical flask (Drtech, Guangzhou, China) and was sterilized in the autoclave (HIRAYAMA, HEV-50, Japan) at 121° C. for 30 min. Bacillus megaterium (total 1*10^7 per culture) was cultured in the incubator (HettCube 200, Germany) at 37° C. for 24 h.
To test whether antibiotics can control the growth of Bacillus megaterium in vitro and in vivo, we first carried out an antibiotic sensitivity screening test in petri dishes which were made in example 1. The sensitivity of Bacillus megaterium to several major antimicrobial agents including ampicillin, vancomycin, neomycin, metronidazole and tetracycline were examined using the minimum inhibitory concentration (MIC) method. Ampicillin, vancomycin, neomycin, metronidazole, and tetracycline (purchased from Sigma, USA) at various concentrations (10^−1, 10^−2, 10^−3, 10^−4, 10^−5 mg/mL) were added into cooled medium.

Bacillus megaterium [2] = assay: Bacillus megaterium subretinal inoculation model, bacteria-induced drusenoid pathology in retinal tissues; type: in vivo, Macaca fascicularis; conditions: intravitreous, 0.5 mg, one injection on Day 2 post bacterial inoculation; macaque; compared to control; FIG. 8
Method: The macaques were sedated by intramuscular injection of a mixture of tiletamine hydrochloride (2.5 mg/kg) and xolazepam hydrochloride (2.5 mg/kg). After instilling topical anesthesia (0.5% proparacaine hydrochloride), the eyes were immediately visualized in vivo using a light microscope. The pupils were then dilated with 0.5% tropicamide and 0.5% phenylephrine to obtain the fundus photographs. […] Under microscopic monitoring, 20 μl of PBS (with or without bacteria) was injected into the subretinal space between photo receptors and RPE (retinal pigment epithelium), using a NanoFil Syringe Nanofil-100 for Microinjection (World Precision Instruments, USA). All procedures were done using sterile instruments. The macaque was euthanized 47 days post inoculation and the eyeball was enucleated for histological analyses. The eyeballs were fixed in 4% paraformaldehyde for 48 h and then embedded in paraffin. Sections were cut on a microtome at 6 μm and stained with H&E.
We examined whether subretinal inoculation of AH and VH cultures, as well as the cultured single species of B. megaterium led to AMD like pathology in macaque. About 20 CFU of bacteria (in 20 μl PBS) from AH, VH, and B. megaterium cultures were injected subretinally and PBS was used as a control (illustrated in FIG. 6). […]

[3] = ocular complications after intraocular administration in monkey; type: in vivo; conditions: data not shown
Source text: Next, we used the Bacillus megaterium subretinal inoculation model to test whether antibiotics might be able to change the bacteria-induced drusenoid pathology in monkey retinal tissues.

Question: With `Cc1ncc([N+](=O)[O-])n1CCO` [metronidazole] as the molecule, how does the “effectiveness in controlling the growth of Bacillus megaterium, fold less effective (relative to neomycin)” value (Bacillus megaterium [1]) read?
Answer: 10000 fold

Question: Which “size of drusenoid lesion in retinal tissue” value (Bacillus megaterium [2]) does the source give for `CN[C@H](CC(C)C)C(=O)N[C@H]1C(=O)N[C@@H](CC(N)=O)C(=O)N[C@H]2C(=O)N[C@H]3C(=O)N[C@H](C(=O)N[C@H](C(=O)O)c4cc(O)cc(O)c4-c4cc3ccc4O)[C@H](O)c3ccc(c(Cl)c3)Oc3cc2cc(c3O[C@@H]2O[C@H](CO)[C@@H](O)[C@H](O)[C@H]2O[C@H]2C[C@](C)(N)[C@H](O)[C@H](C)O2)Oc2ccc(cc2Cl)[C@H]1O` [vancomycin] here?
Answer: reduction in the size of drusenoid lesion

Question: What does the source list for neomycin?
Answer: ocular complications [3]: significant ocular complications including ophthalmatrophia; sensitivity of Bacillus megaterium to antimicrobial agent / in vitro activity controlling the expansion of Bacillus megaterium (Bacillus megaterium [1]; 37° C. 24 h): most sensitive; also recorded: best in vitro activity
